What was measured:
tea variety Longjing 43 = test: Field test: resistance of tea plants to high temperature and tea quality; format: in vivo; settings: for Amino acid content: 5th day after use, tea leaves under high temperature stress; for Heat injury rate: 10th day after use, field; for PIABS: field heat stress
Description: In August 2020, a field test was conducted in the Sun Yat-sen Mausoleum Tea Garden in Nanjing, and the tea variety was Longjing 43. During the test, the actual temperature of the field was 37.6° C.-45.1° C., the concentration of 2-amino-3-methylhexanoic acid was 0, 10, 100, 1,000 and 10,000 nM, and 0.02% Tween 20 was added as a surfactant. Three repetitions were set for each treatment group. In a plot area of 20 m^2, the liquid spraying volume per plot was 2 L. The pesticide was applied to the field three times on August 6, August 8 and Aug. 15, 2020 respectively. On the 3rd, 7th and 14th days after the last use of the pesticide, the phenotype of a tea tree was observed, and a leaf and a bud were sampled from the top of the tea tree. 15 leaves were taken for each treatment group, and the chlorophyll fluorescence parameter PIABS ([…]) of tea leaves was determined with a plant efficiency analyzer Handy-PEA. Samples were taken and the total amino acid content in tea leaves was determined on the 5th day after use of the pesticide, and the heat injury rate was calculated on the 10th day after use of the pesticide.

ryegrass = test: Induced resistance of ryegrass to high temperature stress; format: in vivo; settings: for Dry weight of overground part / Fresh weight of overground part / Heat injury index: 45° C. 12 h, 7 days recovery
Description: 2-amino-3-methylhexanoic acid was dissolved in distilled water and diluted with distilled water into solutions of 1 nM, 10 nM, 100 nM and 1,000 nM by gradient. A blank control was additionally set, and 0.02% Tween 20 was added as a surfactant. 4 groups of repetitions were set for each concentration, and a normal temperature blank control was set at the same time. Ryegrass seeds were weighed according to 0.8 g per pot, sowed in a pot with a diameter of 8.5 cm, and planted in a greenhouse at a temperature of 25° C., a humidity of 60%-70%, and a light intensity of 200 μmolm^−2s^−1 (12 h light/12 h dark). On the 8th day of the seedling stage, the ryegrass was sprayed with the 2-amino-3-methylhexanoic acid solutions on the leaves twice in 24 h. 24 h after the second treatment, the plants were transferred to a light incubator at a temperature of 45° C. for conducting high temperature stress treatment for 12 h, and then the plants were taken out and transferred to a greenhouse at a temperature of 25° C. for 7 days of recovery. The injured conditions of the plants were observed and counted, and the heat injury grade was calculated. […] After the counting, the fresh weight of the aboveground part of the plant was weighed, and then the aboveground part was baked in an 85° C. oven for 48 h to determine the dry weight.

P. fluorescens = settings: cited from earlier work
Pseudomonas aeruginosa = settings: cited from earlier work
Bacillus subtilis = settings: cited from earlier work
[1] = system: tea "Baiye 1" cutting seedlings; test: Induced resistance of tea to low temperature stress; format: in vivo; settings: for PIABS / Cold injury index: tea seedlings, −4° C. for 24 h; for Cold injury index: 3 days recovery
Description: The tea trees tested were “Baiye 1” cutting seedlings. Tea seedlings with relatively consistent growth were transplanted into a plastic pot with a diameter of 18 cm and placed in a greenhouse at a temperature of 25° C. and a humidity of 60%-70% for adaptive growth for about a week. The concentrations of 0, 1, 10, 100 and 1,000 nM were set in the experiment, and 0.02% Tween 20 was added as a surfactant. The spray treatment method was the same as that of the ryegrass in Example 4, and the low temperature stress treatment was conducted at −4° C. for 24 h. After the stress was completed, the tea seedlings were taken out and treated in the dark at room temperature for 30 min, and then the chlorophyll fluorescence parameters of the top leaves of the tea seedlings was determined using the plant efficiency analyzer Handy PEA. Then, the tea seedlings were placed in a 25° C. greenhouse to recover for 3 days, and the cold injury status was observed, counted and graded.

[2] = 100 nM, compared with untreated control group
[3] = 1,000 nM, tea leaves, low temperature stress

**Q.** What does the source list for `CCCC(C)C(N)C(=O)O` (centres unmarked) [2-amino-3-methylhexanoic acid]?
**A.** Amino acid content (tea variety Longjing 43; 10 nM): 2.03 ± 0.05b % DW; Heat injury rate (tea variety Longjing 43; 10 nM, tea leaves): 30%; PIABS (tea variety Longjing 43; 10 nM, 3 d after last use, tea leaves): 6.25 ± 0.51c; PIABS (tea variety Longjing 43; 10 nM, 7 d after last use, tea leaves): 6.43 ± 0.44b; PIABS (tea variety Longjing 43; 10 nM, 14 d after last use, tea leaves): 14.44 ± 0.59c; Increase of total amino acid content versus control group (tea variety Longjing 43; 10 nM, high temperature stress): 22%; Amino acid content (tea variety Longjing 43; 100 nM): 2.21 ± 0.32a % DW; Heat injury rate (tea variety Longjing 43; 100 nM, tea leaves): 17%; PIABS (tea variety Longjing 43; 100 nM, 3 d after last use, tea leaves): 8.26 ± 0.63b; PIABS (tea variety Longjing 43; 100 nM, 7 d after last use, tea leaves): 8.07 ± 0.36a; PIABS (tea variety Longjing 43; 100 nM, 14 d after last use, tea leaves): 19.29 ± 0.95b; Increase of total amino acid content versus control group (tea variety Longjing 43; 100 nM, high temperature stress): 33%; Amino acid content (tea variety Longjing 43; 1,000 nM): 2.20 ± 0.05a % DW; Heat injury rate (tea variety Longjing 43; 1,000 nM, tea leaves): 15%; PIABS (tea variety Longjing 43; 1,000 nM, 3 d after last use, tea leaves): 8.48 ± 0.61ab; PIABS (tea variety Longjing 43; 1,000 nM, 7 d after last use, tea leaves): 8.14 ± 0.70a; PIABS (tea variety Longjing 43; 1,000 nM, 14 d after last use, tea leaves): 19.85 ± 1.04ab; Increase of total amino acid content versus control group (tea variety Longjing 43; 1,000 nM, high temperature stress): 33%; PIABS higher than control group (tea variety Longjing 43; 10,000 nM, 3rd day after use): 108%; Amino acid content (tea variety Longjing 43; 10,000 nM): 2.23 ± 0.08a % DW; PIABS higher than control group (tea variety Longjing 43; 10,000 nM, 7th day after use): 48%; Heat injury rate (tea variety Longjing 43; 10,000 nM, tea leaves): 14%; PIABS higher than control group (tea variety Longjing 43; 10,000 nM, 14th day after use): 52%; PIABS (tea variety Longjing 43; 10,000 nM, 3 d after last use, tea leaves): 8.68 ± 0.56a; PIABS (tea variety Longjing 43; 10,000 nM, 7 d after last use, tea leaves): 8.36 ± 0.51a; PIABS (tea variety Longjing 43; 10,000 nM, 14 d after last use, tea leaves): 21.97 ± 0.88a; Increase of total amino acid content versus control group (tea variety Longjing 43; 10,000 nM, high temperature stress): 34%; Optimum use concentration (accumulation of amino acids in tea leaves) (tea variety Longjing 43; tea leaves, high temperature stress): 100 nM; Optimal use concentration to alleviate high temperature stress (ryegrass): 100 nM; Dry weight of overground part (ryegrass; 1 nM): 0.4 ± 0.01bc g; Fresh weight of overground part (ryegrass; 1 nM): 1.96 ± 0.19b g; Heat injury index (ryegrass; 1 nM): 70%; Dry weight of overground part (ryegrass; 10 nM): 0.46 ± 0.04ab g; Fresh weight of overground part (ryegrass; 10 nM): 2.14 ± 0.095 g; Heat injury index (ryegrass; 10 nM): 60%; Dry weight of overground part (ryegrass; 100 nM): 0.44 ± 0.02nb g; Fresh weight of overground part (ryegrass; 100 nM): 2.60 ± 0.02b g; Heat injury index (ryegrass; 100 nM): 30%; Increase of dry weight of aboveground part (ryegrass; [2]): 25%; Increase of fresh weight of aboveground part (ryegrass; [2]): 162%; Dry weight of overground part (ryegrass; 1,000 nM): 0.45 ± 0.01ab g; Fresh weight of overground part (ryegrass; 1,000 nM): 2.42 ± 0.15b g; Heat injury index (ryegrass; 1,000 nM): 30%; Inhibitory effect (P. fluorescens): no inhibitory effect; Inhibitory effect (Pseudomonas aeruginosa): slight inhibitory effect; Inhibitory effect (Bacillus subtilis): obvious inhibitory effect; PIABS ([1]; 1 nM): 17.69 ± 2.12b; Cold injury index ([1]; 1 nM): 45%; PIABS ([1]; 10 nM): 21.30 ± 1.73ab; Cold injury index ([1]; 10 nM): 30%; PIABS ([1]; 100 nM): 27.01 ± 3.27a; Cold injury index ([1]; 100 nM): 15%; Decrease of cold injury index [1, 3]: 65%; Increase of PIABS [1, 3]: 313%; PIABS ([1]; 1,000 nM): 30.42 ± 3.51a; Cold injury index ([1]; 1,000 nM): 10%
